# Test results reported in BindingDB's records for doi:10.1016/j.bmcl.2010.10.033 (Glaxosmithkline, 2010).
# How the values were obtained:
# [1] = Antagonist activity at CCR5 in HOS cells assessed as inhibition of HIV-1 Ba-L infection
# [2] = Antagonist activity at CCR5 in human peripheral blood lymphocytes cells assessed as inhibition of HIV-1 Ba-L infection
IC50 [1] [nM],IC50 [2] [nM],Structure (SMILES)
18,87,C=CCN(C(=O)Cc1ccc(OC(F)(F)F)cc1)C1CCN(CCC2(c3cccc(F)c3)CCN(C(=O)c3cc(S(=O)(=O)NC(C)(C)C)c(F)cc3Cl)CC2)CC1 [N-allyl-N-(1-(2-(1-(5-(N-tert-butylsulfamoyl)-2-chloro-4-fluorobenzoyl)-4-(3-fluorophenyl)piperidin-4-yl)ethyl)piperidin-4-yl)-2-(4-(trifluoromethoxy)phenyl)acetamide]
26,146,C=CCN(C(=O)NCc1ccc(C(=O)OC)cc1)C1CCN(CCC2(c3cccc(F)c3)CCN(C(=O)c3cc(S(=O)(=O)NC(C)(C)C)c(F)cc3Cl)CC2)CC1 [methyl 4-((3-allyl-3-(1-(2-(1-(5-(N-tert-butylsulfamoyl)-2-chloro-4-fluorobenzoyl)-4-(3-fluorophenyl)piperidin-4-yl)ethyl)piperidin-4-yl)ureido)methyl)benzoate]
